As usually defined, the IC50 is the point on the concentration scale where inhibition reaches its midpoint.

Results on 28 compounds are retold here after patent US20250186437A1, “CARBOLINE COMPOUNDS AND USE THEREOF” (PTC Therapeutics, Inc., priority 2021, published 2025).

The experiment has as its system MOLM-13 cells. Kind of experiment: MOLM-13 Cell Proliferation Assay (indicator of DHODH inhibition). The experiment is classed as cell-based. Particulars: Homo sapiens, 72 Hours of culture, CellTiter-Glo, no uridine. The method in brief:
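Proliferation readout via CellTiter-Glo luminescence after 72 h compound treatment (37 °C, 5% CO2, 0.5% DMSO) of MOLM-13 cells seeded at 10^4 per well in RPMI 1640/10% FBS, used as a DHODH-inhibition indicator since these cells rely on de novo pyrimidine synthesis.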
(Cellular ATP, detected with luciferase, serves as a proxy for viable cell number.)

Turning to `Cc1ccc(C2c3[nH]c4ccc(Cl)cc4c3CCN2c2nc(C)nc(C)n2)c(F)c1` (stereo not shown) [Compound 452, 6-chloro-2-(4,6-dimethyl-1,3,5-triazin-2-yl)-1-(2-fluoro-4-methylphenyl)-2,3,4,9-tetrahydro-1H-pyrido[3,4-b]indole], the IC50 is 5.1 nM.

Compound `Cc1ccc([C@H]2c3[nH]c4ccc(Cl)cc4c3CCN2c2nc(F)nc(N3CCN(C)CC3)n2)c(F)c1F` [Compound 476, (1S)-6-chloro-1-(2,3-difluoro-4-methylphenyl)-2-[4-fluoro-6-(4-methylpiperazin-1-yl)-1,3,5-triazin-2-yl]-2,3,4,9-tetrahydro-1H-pyrido[3,4-b]indole] gave an IC50 of 7.6 nM.

Consider `FC(F)(F)c1ncnc(N2CCc3c([nH]c4ccc(-n5nccn5)cc34)[C@@H]2c2ccc(N3CCOCC3)nc2)n1` [Compound 498, (1S)-1-[6-(morpholin-4-yl)pyridin-3-yl]-6-(2H-1,2,3-triazol-2-yl)-2-[4-(trifluoromethyl)-1,3,5-triazin-2-yl]-2,3,4,9-tetrahydro-1H-pyrido[3,4-b]indole], for which the IC50 amounted to 0.7 nM. Against the preceding compound, the IC50 is about 11-fold lower.

Turning to `Cc1ccc(C2c3[nH]c4ccc(Cl)c(F)c4c3CCN2c2ncc(Cl)cn2)cc1` (stereo not shown) [Compound 21, 6-chloro-2-(5-chloropyrimidin-2-yl)-5-fluoro-1-(4-methylphenyl)-2,3,4,9-tetrahydro-1H-pyrido[3,4-b]indole], half-maximal inhibition (IC50) was put at 9.8 nM.

In the case of `Cc1ccc(C2c3[nH]c4cc(F)c(Cl)cc4c3CCN2c2ncc(C(F)(F)F)cn2)cc1` (stereo not shown) [Compound 97, 6-chloro-7-fluoro-1-(4-methylphenyl)-2-[5-(trifluoromethyl)pyrimidin-2-yl]-2,3,4,9-tetrahydro-1H-pyrido[3,4-b]indole], half-maximal inhibition (IC50) required 15.3 nM.

`Cc1ccc([C@H]2c3[nH]c4ccc(Br)cc4c3CCN2c2nc(C(F)(F)F)nc(C(F)(F)F)n2)c(F)c1F` [Compound 523, (1S)-2-[4,6-bis(trifluoromethyl)-1,3,5-triazin-2-yl]-6-bromo-1-(2,3-difluoro-4-methylphenyl)-2,3,4,9-tetrahydro-1H-pyrido[3,4-b]indole] returned an IC50 of 0.6 nM.

In turn, `Cc1cnn(-c2ccc3[nH]c4c(c3c2)CCN(c2nc(C(F)(F)F)cc(C(F)(F)F)n2)[C@H]4c2ccc(C)c(F)c2F)n1` [Compound 520, (1S)-2-[4,6-bis(trifluoromethyl)pyrimidin-2-yl]-1-(2,3-difluoro-4-methylphenyl)-6-(4-methyl-2H-1,2,3-triazol-2-yl)-2,3,4,9-tetrahydro-1H-pyrido[3,4-b]indole] showed an IC50 of 1.7 nM.

Consider `O=C(O)CCNc1ncc([C@H]2c3[nH]c4ccc(Cl)cc4c3CCN2c2nc(C(F)(F)F)nc(C(F)(F)F)n2)cn1` [Compound 537, N-(5-{(1S)-2-[4,6-bis(trifluoromethyl)-1,3,5-triazin-2-yl]-6-chloro-2,3,4,9-tetrahydro-1H-pyrido[3,4-b]indol-1-yl}pyrimidin-2-yl)-β-alanine], for which the 50% inhibitory concentration (IC50) came to 4 nM.

`Cc1ccc(C2c3[nH]c4ccc(Cl)c(F)c4c3CCN2c2nc(C#N)cc(C#N)n2)c(F)c1F` (stereo not shown) [Compound 229, 2-[6-chloro-1-(2,3-difluoro-4-methylphenyl)-5-fluoro-1,3,4,9-tetrahydro-2H-pyrido[3,4-b]indol-2-yl]pyrimidine-4,6-dicarbonitrile] returned an IC50 of 1.9 nM.

`Cc1ccc(C2c3[nH]c4ccc(Cl)c(F)c4c3CCN2c2ncc(F)cn2)cc1` (stereo not shown) [Compound 20, 6-chloro-5-fluoro-2-(5-fluoropyrimidin-2-yl)-1-(4-methylphenyl)-2,3,4,9-tetrahydro-1H-pyrido[3,4-b]indole] showed an IC50 of 12.9 nM.

On to `Cc1ccc(C2c3[nH]c4cc(F)c(Cl)cc4c3CCN2c2ncc(F)c(C#N)n2)cc1` (stereo not shown) [Compound 175, 2-[6-chloro-7-fluoro-1-(4-methylphenyl)-1,3,4,9-tetrahydro-2H-pyrido[3,4-b]indol-2-yl]-5-fluoropyrimidine-4-carbonitrile], for which 4.7 nM corresponded to half-maximal inhibition (IC50).

`FC(F)(F)c1nc(N2CCc3c([nH]c4ccc(-n5nccn5)cc34)[C@@H]2c2ccc(N3CCOCC3)nc2)nc(C(F)(F)F)n1` [Compound 486, (1S)-2-[4,6-bis(trifluoromethyl)-1,3,5-triazin-2-yl]-1-[6-(morpholin-4-yl)pyridin-3-yl]-6-(2H-1,2,3-triazol-2-yl)-2,3,4,9-tetrahydro-1H-pyrido[3,4-b]indole] gave an IC50 of 0.4 nM.

Turning to `Cc1cc(C(F)(F)F)nc(N2CCc3c([nH]c4cc(F)c(Cl)cc34)C2c2cccc(F)c2F)n1` (stereo not shown) [Compound 147, 6-chloro-1-(2,3-difluorophenyl)-7-fluoro-2-[4-methyl-6-(trifluoromethyl)pyrimidin-2-yl]-2,3,4,9-tetrahydro-1H-pyrido[3,4-b]indole], the IC50 came to 1.3 nM.

Compound `N#Cc1ccc(C2c3[nH]c4c(F)cc(Cl)cc4c3CCN2c2ncc(F)cn2)cc1` (stereo not shown) [Compound 33, 4-[6-chloro-8-fluoro-2-(5-fluoropyrimidin-2-yl)-2,3,4,9-tetrahydro-1H-pyrido[3,4-b]indol-1-yl]benzonitrile] gave a concentration for half-maximal inhibition (IC50) of 121 nM.

The compound `Cc1ccc(C2c3[nH]c4ccc(Cl)cc4c3CCN2c2ncc(F)cn2)c(F)c1F` (stereo not shown) [Compound 401, 6-chloro-1-(2,3-difluoro-4-methylphenyl)-2-(5-fluoropyrimidin-2-yl)-2,3,4,9-tetrahydro-1H-pyrido[3,4-b]indole] registered an IC50 of 3.2 nM.

`Cc1ccc(C2c3[nH]c4ccc(F)cc4c3CCN2c2nc(C(F)(F)F)nc(C(F)(F)F)n2)c(F)c1F` (stereo not shown) [Compound 492, 2-[4,6-bis(trifluoromethyl)-1,3,5-triazin-2-yl]-1-(2,3-difluoro-4-methylphenyl)-6-fluoro-2,3,4,9-tetrahydro-1H-pyrido[3,4-b]indole] returned an IC50 of 3.2 nM. That is a single-digit nanomolar value.

`Cc1ccc(C2c3[nH]c4cc(F)c(Cl)cc4c3CCN2c2ncc(Cl)cn2)c(F)c1F` (stereo not shown) [Compound 130, 6-chloro-2-(5-chloropyrimidin-2-yl)-1-(2,3-difluoro-4-methylphenyl)-7-fluoro-2,3,4,9-tetrahydro-1H-pyrido[3,4-b]indole]: half-maximal inhibition (IC50) was put at 5.8 nM.

For the compound `Cc1ccc(C2c3[nH]c4ccc(Cl)cc4c3CCN2c2nccc(-c3ccccc3)n2)c(F)c1F` (stereo not shown) [Compound 469, 6-chloro-1-(2,3-difluoro-4-methylphenyl)-2-(4-phenylpyrimidin-2-yl)-2,3,4,9-tetrahydro-1H-pyrido[3,4-b]indole], the half-maximal inhibitory concentration (IC50) was 4 nM.

`FC(F)(F)c1ccnc(N2CCc3c([nH]c4ccc(Cl)cc34)[C@@H]2c2ccc(N3CCOCC3)nc2)n1` [Compound 473, (1S)-6-chloro-1-[6-(morpholin-4-yl)pyridin-3-yl]-2-[4-(trifluoromethyl)pyrimidin-2-yl]-2,3,4,9-tetrahydro-1H-pyrido[3,4-b]indole] came in with an IC50 of 1 nM.

For `FC(F)(F)c1cc(C(F)(F)F)nc(N2CCc3c([nH]c4ccc(-n5nccn5)cc34)[C@@H]2c2cnc(N3CCOCC3)nc2)n1` [Compound 514, (1S)-2-[4,6-bis(trifluoromethyl)pyrimidin-2-yl]-1-[2-(morpholin-4-yl)pyrimidin-5-yl]-6-(2H-1,2,3-triazol-2-yl)-2,3,4,9-tetrahydro-1H-pyrido[3,4-b]indole], the IC50 amounted to 0.6 nM.

`Oc1c(F)cccc1C1c2[nH]c3ccc(Cl)cc3c2CCN1c1nccc(C(F)(F)F)n1` (stereo not shown) [Compound 252, 2-{6-chloro-2-[4-(trifluoromethyl)pyrimidin-2-yl]-2,3,4,9-tetrahydro-1H-pyrido[3,4-b]indol-1-yl}-6-fluorophenol]: half-maximal inhibition (IC50) was put at 2 nM.

With `Cc1ccc(C2c3[nH]c4ccc(F)cc4c3CCN2c2nccc(C(F)(F)F)n2)c(F)c1F` (stereo not shown) [Compound 493, 1-(2,3-difluoro-4-methylphenyl)-6-fluoro-2-[4-(trifluoromethyl)pyrimidin-2-yl]-2,3,4,9-tetrahydro-1H-pyrido[3,4-b]indole], the IC50 worked out at 25 nM.

As for `Cc1nc(C)nc(N2CCc3c([nH]c4ccc(Cl)c([N+](=O)[O-])c34)C2c2cnc(N3CCOCC3)nc2)n1` (stereo not shown) [Compound 325, 4-[5-[6-chloro-2-(4,6-dimethyl-1,3,5-triazin-2-yl)-5-nitro-1,3,4,9-tetrahydropyrido[3,4-b]indol-1-yl]pyrimidin-2-yl]morpholine], inhibition was half-maximal at 167 nM (IC50). This IC50 is about 6.7-fold higher than that of the compound before.

As for `Cc1ccc(C2c3[nH]c4ccc(Cl)cc4c3CCN2c2nccc(C(F)(F)F)n2)c(F)c1F` (stereo not shown) [Compound 128, 6-chloro-1-(2,3-difluoro-4-methylphenyl)-2-[4-(trifluoromethyl)pyrimidin-2-yl]-2,3,4,9-tetrahydro-1H-pyrido[3,4-b]indole], the IC50 stood at 0.9 nM.

Take `Fc1ccc(C2c3[nH]c4ccc(Cl)cc4c3CCN2c2nccc(Cl)n2)cc1` (stereo not shown) [Compound 13, 6-chloro-2-(4-chloropyrimidin-2-yl)-1-(4-fluorophenyl)-2,3,4,9-tetrahydro-1H-pyrido[3,4-b]indole]: half-maximal inhibition (IC50) required 12.4 nM.

Turning to `COC(=O)CCc1ccc(C2c3[nH]c4cc(F)c(Cl)cc4c3CCN2c2nccc(C(F)(F)F)n2)cc1` (stereo not shown) [Compound 164, methyl 3-(4-{6-chloro-7-fluoro-2-[4-(trifluoromethyl)pyrimidin-2-yl]-2,3,4,9-tetrahydro-1H-pyrido[3,4-b]indol-1-yl}phenyl)propanoate], the IC50 turned out to be 4 nM. Against the preceding compound, the IC50 is about 3.1-fold lower.

In turn, `FC(F)(F)c1cc(C(F)(F)F)nc(N2CCc3c([nH]c4ccc(Cl)cc34)[C@@H]2c2cnc(N3CCNC4(CC4)C3)nc2)n1` [Compound 512, (1S)-2-[4,6-bis(trifluoromethyl)pyrimidin-2-yl]-6-chloro-1-[2-(4,7-diazaspiro[2.5]octan-7-yl)pyrimidin-5-yl]-2,3,4,9-tetrahydro-1H-pyrido[3,4-b]indole] displayed an IC50 of 1.6 nM.

Consider `Cc1ccc(C2c3[nH]c4cc(F)c(Cl)cc4c3CCN2c2ncc(F)c(C)n2)c(F)c1F` (stereo not shown) [Compound 125, 6-chloro-1-(2,3-difluoro-4-methylphenyl)-7-fluoro-2-(5-fluoro-4-methylpyrimidin-2-yl)-2,3,4,9-tetrahydro-1H-pyrido[3,4-b]indole], for which the midpoint of inhibition, the IC50, lay at 3.2 nM. This IC50 is about 2-fold higher than that of the compound before.
